Reference: patent publication US7345065B2, “Methods and compositions for alleviating pain” (Allergan, Inc., priority 2002, dated 2008)
Entries after “also recorded” stand apart in the source; their conditions may differ.

What was measured:
[1] = test system: sulprostone-sensitized wild type mice; test: Sulprostone sensitized pain (allodynia), wild type mice; format: in vivo, mouse
Protocol: Non-specific α-adrenergic agonists were assayed in α-2A receptor deficient (“knockout”) mice (Hein et al., supra, 1999) using a mouse model of sulprostone sensitized pain in which allodynia is evoked by intrathecal administration of a selective prostaglandin E2 receptor agonist to conscious mice essentially as described in Minami et al., Pain 57:217-223 (1994). In this model, the pain response to stroking the flank with a paint brush is scored eight times over a 35 minute period starting 15 minutes following spinal administration of sulprostone and intrathecal or intraperitoneal administration of drug or control vehicle. Sulprostone elicits a “pain” score of 12-13 on a 16-point scale.
(§1) Assays for allodynia in wild type and α-2A knockout mice were performed essentially according to the method of Yaksh and Harty, J. Pharmacology Exp. Ther. 244: 501-507 (1998). In brief, mice were divided into groups of 5-6 animals. Control mice were administered 5 ul DMSO while treated animals were injected with 5 ul DMSO containing various doses of the indicated agent. After intrathecal injection, each mouse was placed in an individual 13×8.5×13 cm Plexiglass enclosure with wood chips on the floor for observation. Allodynia was assessed once every five minutes over a 50 minute time period, with response recorded eight times in the 15 to 50 minute time frame. Allodynia was assessed by light stroking of the flank of the mice with a small paintbrush and ranked as follows: 0, no response; 1, mild squeaking with attempts to move away from the stroking probe; and 2, vigorous squeaking evoked by the stroking probe, biting at the probe and strong efforts to escape. The eight scores for each animal were added together, and the mean for the group determined to give an average total score.

[2] = test system: α-2B heterozygous (−/+) and homozygous (−/−) knockout mice; test: Sulprostone sensitized pain (allodynia), α-2B knockout mice; format: in vivo, mouse; settings: intraperitoneal; heterozygous and homozygous α-2B knockout; clonidine 500 ug/kg, Compound 3 100 ug/kg
[3] = test system: Male Sprague-Dawley rats; test: Sedative effects in rats (total activity, digicom analyzer chamber); format: in vivo, rat
Protocol: (§2) Sedative effects were analyzed by assessing exploratory behavior in a darkened chamber as follows. Mice were weighed, and test compound administered by intrathecal injection in a volume of 5 μl or by intraperitoneal injection in 1 ml/kg volume at the indicated dose. At predetermined time points corresponding with analgesia measurements 5 to 30 minutes following the injection, the animal's activity was determined automatically by placing the mouse in a digicom analyzer chamber (Omnitech Electronic; Columbus, Ohio). The digicom analyzer chamber contains photocell beams criss-crossing the box that are broken as the animal moves around; the chamber was modified for mice by raising the level of the floor. Computer analysis of total animal movement proceeded over a 5-minute time period. Any given animal was used at most twice for this protocol, as learned behavior can affect the data. All animals received at least two weeks rest between studies.
Male Sprague-Dawley rats that were not subject to surgery were used for assessment of sedative effects. Rats were weighed and compound administered by intravenous or intraperitoneal injection or given orally at the indicated dose. At a predetermined time point 5 to 30 minutes following injection, the animal's activity was determined automatically by placing the rat in a digicom analyzer chamber (Omnitech Electronic). Total activity was analyzed as described above.

[4] = test system: sulprostone-sensitized α-2A knockout mice; test: Sulprostone sensitized pain (allodynia), α-2A knockout mice; format: in vivo, mouse
Protocol: as §1, with “In” for “Assays for allodynia in wild type and α-2A knockout mice were performed essentially according to the method of Yaksh and Harty, J. Pharmacology Exp. Ther. 244: 501-507 (1998). In”

[5] = test system: Chung model rats; test: Chung rat nerve ligation model, tactile allodynia reversal (Von Frey); format: in vivo; settings: for analgesia when co-administered with 0.3 μg/kg Compound 13: intraperitoneal, clonidine 30 μg/kg; for analgesia when co-administered with 0.3 μg/kg Compound 13 / analgesia, agonist given alone: Compound 2 100 μg/kg; for long-term pain alleviation after extended dosing: gabapentin 3 mg/kg oral TID three days, amitriptyline 0.1, brimonidine 0.04, Compound 1 0.1 mg/kg/hour minipump seven days; for analgesia, agonist given alone: peripheral (intraperitoneal) administration, clonidine 100 μg/kg, Compound 3 1 to 1000 μg/kg; for Peak allodynia reversal (dose): intraperitoneal injection, dose (3-300 μg/kg); for analgesia when co-administered with Compound 13 at 0.2 mg/kg/day: osmotic minipump; for allodynia reversal, enantiomers versus parent racemate: intraperitoneal administration, Chung model rats
Protocol: The Chung rat nerve ligation model is a well accepted model of peripheral neuropathic pain. In the Chung model, partial ligation of left spinal nerves L-5 and L-6 produces a long-lasting hypersensitivity to light touch on the affected left foot. The hypersensitivity is similar to pain experienced by humans with the neuropathic condition of causalgia (Kim and Chung, Pain 50:355-363 (1992)).
Chung rat surgeries of about 20 minutes duration were performed essentially as follows. Male Sprague-Dawley rats weighing 100 to 120 grams were anesthetized with isofluorane. After shaving and preparing the surgical site with betadine, an incision was made from thoracic vertebra XIII down toward the sacrum, and muscle separated from spinal vertebra (left side) at the L4-S2 levels. The L6 vertebra were located, and the transverse process carefully removed with a small rongeur to visually identify the L4-L6 spinal nerves. L5 and L6 spinal nerves were isolated and tightly ligated with 6-0 silk thread; the wound was sutured after complete hemostasis was confirmed. A small amount of antibiotic ointment was applied to the incised area before transferring the animals to a plastic recovery cage under a regulated heat-temperature lamp. Animals were not treated with any topical or local anesthetics post-operatively.
Assessment of pain in Chung model rats was performed by applying a light tactile stimulus (Von Frey hair) to the affected surgical paw as follows. A 50% pain threshold was established by applying the Von Frey hair in an up-and-down manner to the plantar surface of the surgical paw with just enough force to bend them. A positive response was recorded if the paw was withdrawn sharply. The 50% paw withdrawal threshold was determined using the method of Dixon et al., Ann. Rev. Pharmacol. Toxicol. 20:441-462 (1980). The post-drug threshold was compared to the pre-drug threshold, and the precent reversal of tactile sensitivity calculated based on a normal threshold of 15.1 grams. The results were expressed as % allodynia reversal, reflecting the percentage reversal of pain threshold relative to a normal rat (100%).
Chung surgeries were performed, and pain assessed as described above. Drugs administered via osmotic minipump were delivered as follows. ALZET (Cupertino, Calif.) minipumps (Model #1007D) were implanted subcutaneously on the rats' back between the shoulder blades. Pumps were filled with test solution prior to surgery, which was performed with aseptic procedures and sterilized surgical instruments. After anesthetization with isoflorane and midline incision between the shoulder blades through the muscle, a subcutaneous pocket was exposed. The minipump was inserted into the exposed pocket, before stapling the wounds closed and allowing animals to recover under a warming light.
ALZET osmotic minipumps (model 1007D) hold a total volume of 100 μl and delivered drug at the set rat of 0.5 μl per hour the indicated time period. Drugs were administered at the indicated rate, typically 100 μg/hr/kg, dissolved in 50% DMSO, with the concentration of drug in the pump varied depending on animal weight. […]

[6] = test system: mice; test: Sedative effects in mice (exploratory activity, digicom analyzer chamber); format: in vivo, mouse; settings: intraperitoneal, wild type mice; clonidine 500 ug/kg, Compound 3 100 ug/kg
Protocol: as §2

[7] = intraperitoneal injection, wild type mice (Compound 1 30 μg/kg; Compound 2 100 μg/kg)
[8] = intrathecal injection (Compound 1: 1 μg), wild type mice
[9] = intraperitoneal, α-2A knockout mice (Compound 1 30 μg/kg; Compound 2 and PAC 100 μg/kg)
[10] = intrathecal injection (Compound 1: 1 μg), α-2A knockout mice
[11] = subcutaneous osmotic minipump 0.1 mg/kg/hour, seven days
[12] = rauwolscine 0.3 μg/kg i.p., Compound 8 by osmotic minipump

Clc1cccc(Cl)c1N=C1NCCN1 [clonidine, reference compound]
analgesia [1, 7]: failed to produce analgesia separable from sedation | sulprostone-induced tactile allodynia ([1]; intraperitoneal, wild type mice, clonidine 500 ug/kg, Compound 3 100 ug/kg): alleviated sulprostone-induced tactile allodynia | analgesia [1, 8]: significant analgesia separable from sedation | analgesic effect in α-2B knockout mice [2]: alleviated the analgesia in both heterozygous and homozygous α-2B knockout strains | sedation (activity) ([3]; clonidine 30 μg/kg intraperitoneal): reduces activity | sedation ([3]; clonidine 100 μg/kg intraperitoneal): extremely sedating | analgesia [4, 9]: significant analgesia without sedation | analgesia [4, 10]: did not produce analgesia | analgesia when co-administered with 0.3 μg/kg Compound 13 ([5]; Chung rats): dramatic allodynia reversal | analgesia ([5]; intrathecal injection, Chung rats): significant analgesia separable from sedation | concomitant sedation [6]: produced concomitant sedation

CN(C)CCC=C1c2ccccc2CCc2ccccc21 [amitriptyline, reference compound]
long-term pain alleviation after extended dosing [5]: the allodynia returned completely prior to or following cessation of treatment

CC1=CCCC1Cc1c[nH]c(=S)[nH]1 (stereo not drawn) [Compound 2]
analgesia [1, 7]: not analgesic | sedative effects ([3]; 100 μg/kg Compound 2 co-administered with 0.3 μg/kg Compound 13): no significant sedative effects | analgesia [4, 9]: fully analgesic | analgesia when co-administered with 0.3 μg/kg Compound 13 ([5]; Chung rats): significant analgesia | analgesia, agonist given alone ([5]; Chung rats): not analgesic

Fc1c(Cl)cccc1CNC1=NCCO1 [Compound 6]
Peak allodynia reversal (dose) [5]: 92% +/− 5.2%

CCC1=CC(Cc2c[nH]cn2)CCC1 (stereo not drawn) [Compound 9]
allodynia alleviated during the period of drug treatment [5, 11]: 60-80% | persistence of analgesic effects after treatment [5, 11]: continued for over a month after treatment was concluded

Clc1cccc(CNC2=NCCS2)c1Cl [Compound 5]
Peak allodynia reversal (dose) [5]: 77% +/− 8.3%

COC(=O)[C@H]1[C@H]2C[C@H]3c4[nH]c5ccccc5c4CCN3C[C@H]2CC[C@@H]1O [rauwolscine, reference compound]
effect on the analgesic effect of PAC (100 μg/kg i.p.) ([4]; rauwolscine 0.3 μg/kg intraperitoneal, α-2A knockout mice): blocked | inhibition of the analgesic activity of Compound 8, fourth day of treatment [5, 12]: not on the fourth day | inhibition of the analgesic activity of Compound 8, third day of treatment [5, 12]: inhibited the analgesic activity of Compound 8 when injected on the third day

Fc1ccc(Br)c(CNC2=NCCO2)c1 [Compound 14]
Peak allodynia reversal (dose) [5]: 77% +/− 6.2%

Cc1c(N=C2NCCN2)ccc2c1NCCO2 [Compound 1]
analgesia [1, 7]: failed to produce analgesia separable from sedation | analgesia [1, 8]: significant analgesia separable from sedation | analgesia [4, 9]: significant analgesia without sedation | analgesia [4, 10]: did not produce analgesia | long-term pain alleviation after extended dosing [5]: the allodynia returned completely prior to or following cessation of treatment | analgesia when co-administered with Compound 13 at 0.2 mg/kg/day ([5]; Chung rats): greater analgesia was observed during the dosing period, and this analgesic effect continued after completion of drug administration | analgesia, agonist given alone ([5]; Chung rats): neither compound was significantly analgesic at non-sedating doses

Brc1c(NC2=NCCN2)ccc2nccnc12 [brimonidine]
analgesia [1, 7]: failed to produce analgesia separable from sedation | analgesia [1, 8]: significant analgesia separable from sedation | analgesic effect in α-2B knockout mice [2]: analgesic | analgesia [4, 9]: significant analgesia without sedation | analgesia [4, 10]: did not produce analgesia | long-term pain alleviation after extended dosing [5]: the allodynia returned completely prior to or following cessation of treatment | analgesia when co-administered with Compound 13 at 0.2 mg/kg/day ([5]; Chung rats): greater analgesia was observed during the dosing period, and this analgesic effect continued after completion of drug administration

Nc1cc(Cl)c(N=C2NCCN2)c(Cl)c1 [PAC, para-amino clonidine, reference compound]
analgesia [4, 9]: analgesic | analgesia, agonist given alone ([5]; Chung rats): neither compound was significantly analgesic at non-sedating doses

Cc1cccc(CNC(=S)NCCO)c1F [Compound 7]
Peak allodynia reversal (dose) [5]: 60% +/− 8.0%

O=c1[nH]cc(C[C@H]2CCc3cc(F)ccc32)[nH]1 [Compound 12]
allodynia reversal, enantiomers versus parent racemate [5]: at least as effective as the parent compound in reducing allodynia at all doses tested

O=C1c2ccccc2CCC1Cc1c[nH]c(=S)[nH]1 (stereo not drawn) [Compound 10]
allodynia reversal, enantiomers versus parent racemate [5]: allodynia reversal was obtained; also recorded: as effective as parent racemic mixture in relieving pain

NCC1(CC(=O)O)CCCCC1 [gabapentin, reference compound]
long-term pain alleviation after extended dosing [5]: the allodynia returned completely prior to or following cessation of treatment
